Source: US20110117054A1, “USE OF RIBAVIRIN IN BLOOD COAGULATION DISORDER” (National University Corporation Nagoya University, priority 2007, published 2011)

Test system: HCV
Assay: HCV eradication in HCV positive hemophilia patients (Working Example 6)
Assay type: in vivo, hepatitis C virus
Settings: Patient No. 6, interferon-α-2b alone prior to administration in this example
Procedure: In Table 5, the severity of hemophilia was rated as mild when the level of coagulation factors exceeded 5%, moderate when this level was from 1 to 5%, and severe when this level was below 1%. The HCV-RNA level was measured with an Amplicor HCV Assay, version 2 (Roche) at the start of administration. The genotype of the HCV virus was determined from the base sequence of the 5′-UTR region thereof. HCV eradication was indicated as “yes” when HCV-RNA viruses were not detected for 24 weeks following the end of administration. The HIV infection state was determined by the HIV antibodies using a particle agglutination assay kit (Fujirebio Inc.).

interferon-α-2b
HCV eradication: not eradicated
